This is an account of results in PMC7707092, “Discovery and characterization of ORM‐11372, a novel inhibitor of the sodium‐calcium exchanger with positive inotropic activity” (British Journal of Pharmacology, 2020).

The structures appear in SMILES notation.

The data set concerns the target hERG KV11.1 current (I hERG) (Homo sapiens, UniProt Q12809). In words: KV11.1 channel current (I hERG), QPatch automated patch‐clamp, CHO–hERG cells. Format: cell-based. An excerpt: The hERG‐encoded voltage‐dependent potassium channel current (I hERG) cells to be studied were harvested with Detachin solution and either diluted with a volume of CHO cell serum‐free media (supplemented with 100 IU·ml^−1 of penicillin/streptomycin and 25‐mM HEPES) to obtain cells, for which the cell density was ~4 x10^6 cells·ml^−1, or plated on glass coverslips and used on the following 1–2 days. HEK 293 cells were transiently transfected using lipofectamine (Invitrogen, USA), with a human sodium voltage‐gated channel subunit 5 (hSCN5) A (transcript variant 2)‐containing plasmid, in Optimem medium. […]
In addition, after loading the CHO–hERG cell suspension, whole‐cell voltage‐clamp values were recorded at room temperature on a QPatch 16× automated patch‐clamp (Sophion Biosciences), in the single‐hole mode. […] The hERG tail current was measured as the difference between the peak tail current amplitude during the repolarization step and leak current measurement step. Subsequently, the voltage dependence of the block was also assessed, by carrying out depolarization for 4 s, from −80 to +60 mV in 10‐mV steps, before and after the addition of 20‐μM ORM‐11372 (n = 7). The peak tail current elicited during the 5 s repolarization step to −50 mV was measured and plotted against the preceding depolarization step voltage values.

hERG KV11.1 current (I hERG), sequence (Q12809 whole entry): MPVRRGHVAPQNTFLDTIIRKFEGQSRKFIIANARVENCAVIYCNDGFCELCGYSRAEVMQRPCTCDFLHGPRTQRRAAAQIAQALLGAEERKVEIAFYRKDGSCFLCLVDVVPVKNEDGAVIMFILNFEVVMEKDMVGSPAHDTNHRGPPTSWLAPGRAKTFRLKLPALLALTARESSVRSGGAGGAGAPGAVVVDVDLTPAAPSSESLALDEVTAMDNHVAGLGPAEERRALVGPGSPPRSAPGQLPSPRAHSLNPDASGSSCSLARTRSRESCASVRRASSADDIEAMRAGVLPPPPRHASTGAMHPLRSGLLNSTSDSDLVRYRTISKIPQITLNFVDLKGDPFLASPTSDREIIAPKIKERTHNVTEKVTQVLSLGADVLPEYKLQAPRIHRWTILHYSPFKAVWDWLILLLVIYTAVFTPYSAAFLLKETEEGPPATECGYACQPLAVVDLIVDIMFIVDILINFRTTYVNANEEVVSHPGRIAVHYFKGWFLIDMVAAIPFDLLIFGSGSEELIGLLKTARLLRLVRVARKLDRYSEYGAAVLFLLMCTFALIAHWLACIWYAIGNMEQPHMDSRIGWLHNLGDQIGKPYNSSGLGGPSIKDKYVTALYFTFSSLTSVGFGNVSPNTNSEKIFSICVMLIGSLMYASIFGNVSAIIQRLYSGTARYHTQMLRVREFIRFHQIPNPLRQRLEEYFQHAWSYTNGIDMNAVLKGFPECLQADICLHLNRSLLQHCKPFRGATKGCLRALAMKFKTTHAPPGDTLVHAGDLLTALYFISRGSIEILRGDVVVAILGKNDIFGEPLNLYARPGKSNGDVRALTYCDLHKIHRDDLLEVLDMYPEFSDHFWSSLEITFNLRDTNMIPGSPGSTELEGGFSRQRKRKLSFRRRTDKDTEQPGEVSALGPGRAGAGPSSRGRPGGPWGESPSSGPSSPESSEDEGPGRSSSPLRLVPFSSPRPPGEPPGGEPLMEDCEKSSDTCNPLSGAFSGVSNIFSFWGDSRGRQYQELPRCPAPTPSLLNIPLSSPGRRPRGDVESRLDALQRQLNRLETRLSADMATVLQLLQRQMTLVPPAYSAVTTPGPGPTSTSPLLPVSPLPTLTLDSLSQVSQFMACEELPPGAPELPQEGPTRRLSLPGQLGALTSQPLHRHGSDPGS

Usually IC50 stands for the concentration that inhibits the measured activity by half. With `Nc1cccc(-c2ccc(CNc3ccc(F)cc3)o2)c1` [ORM‐11372], the “slope k of I hERG activation curve (Boltzmann fit)” value (20 µM ORM-11372, n=7, control 6.9 ± 0.3 mV) is recorded as 5.5 ± 0.1 mV. Where the note is “automated patch‐clamp, room temperature”, this molecule returned an IC50 of 19.2 µM.
